According to patent publication US5508383A, “Cyclic peptide LHRH antagonists” (Tap Holdings Inc., priority 1994, dated 1996):
Where a SMILES comes first, the peptide text is derived from it. Bridges are numbered along the chain shown (N, C = ends). [ ]: non-standard residue; d: D form. The star is where a group is joined. Propanoyl(3-(4-Cl-Ph)) = O=C(CCc1ccc(Cl)cc1)*; Phenylacetyl(4-F) = O=C(Cc1ccc(F)cc1)*; Lys(iPr) = CC(C)NCCCC[C@H](N)C(=O)O; NMeY = CN[C@@H](Cc1ccc(O)cc1)C(=O)O; Nicotinoyl = O=C(c1cccnc1)*

These molecules were tested against T1, LHRH (Rattus norvegicus, UniProt P30969) (assay: in vitro test for LHRH antagonist potency (pA2), shift of the leuprolide response curve). Conditions: negative logarithm of antagonist concentration required to shift the response curve produced by the agonist leuprolide to two-fold higher concentration.
T1 construct: endogenous in cells; host or cells: pituitary cells (own knowledge of the cited method)
T1 sequence (P30969 1-327): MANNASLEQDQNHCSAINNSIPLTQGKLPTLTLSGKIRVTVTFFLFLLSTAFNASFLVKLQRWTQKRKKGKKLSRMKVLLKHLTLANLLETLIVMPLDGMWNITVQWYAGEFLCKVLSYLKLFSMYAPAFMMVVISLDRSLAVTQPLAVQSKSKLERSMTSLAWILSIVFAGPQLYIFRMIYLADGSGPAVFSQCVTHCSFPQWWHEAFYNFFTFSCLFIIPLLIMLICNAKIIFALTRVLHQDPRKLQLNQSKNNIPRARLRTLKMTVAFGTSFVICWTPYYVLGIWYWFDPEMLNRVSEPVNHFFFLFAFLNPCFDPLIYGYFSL
Format: cell-based
Procedure: Representative compounds of the present invention were evaluated in an in vitro test for LHRH antagonist potency (pA2). The test employed the method detailed in F. Haviv, et al. J. Med. Chem., 32: 2340-2344 (1989). The values of pA2 are the negative logarithms of the concentration of the particular antagonist test compound required to shift the response curve produced by the agonist leuprolide to two-fold higher concentration. (Leuprolide is the LHRH agonist having the structure 5-oxo-Pro^1 -His^2 -Trp^3 -Ser^4 -Tyr^5 -D-Leu^6 -Leu^7 -Arg^8 -Pro-^9 -NHEt and is disclosed and claimed in U.S. Pat. No. 4,005,063.) Typically pA2 values of 6.0 or greater are indicative of acceptable LHRH antagonist potency, with compounds having pA2 values of 9.0 or greater being preferred.

Molecule	pA2	Kb [nM]
CC(C)C[C@@H]1NC(=O)[C@@H](CCCCNC(=O)c2cccnc2)NC(=O)[C@H](Cc2ccc(O)cc2)N(C)C(=O)CNC(=O)[C@H](NC(=O)CCc2ccc(Cl)cc2)CCCCNC(=O)CC[C@H](C(N)=O)NC(=O)CNC(=O)[C@H](CCCCNC(C)C)NC1=O [Example 18, 4ClPhepropionyl-c-{DLys-Gly-NMeTyr-DLys(Nicotinyl)-Leu-Lys(N-epsilon-Isopropyl)-Gly-DGlu}-NH2] ({Propanoyl(3-(4-Cl-Ph))}-[dK]G[NMeY][dK](Nicotinoyl)L[Lys(iPr)]G[dE]-NH2; lactam 1-8)		> 1000
CC(C)C[C@@H]1NC(=O)[C@@H](CCCCNC(=O)c2cccnc2)NC(=O)[C@H](Cc2ccc(O)cc2)N(C)C(=O)[C@H](CO)NC(=O)[C@H](NC(=O)Cc2ccc(F)cc2)CCCCNC(=O)CC[C@H](C(N)=O)NC(=O)[C@@H]2CCCN2C(=O)[C@H](CCCCNC(C)C)NC1=O [Example 10, 4F-Phenylacetyl-c-{DLys-Ser-NMeTyr-DLys(Nicotinyl)-Leu-Lys(N-epsilon-Isopropyl)-Pro-DGlu}-NH2] ({Phenylacetyl(4-F)}-[dK]S[NMeY][dK](Nicotinoyl)L[Lys(iPr)]P[dE]-NH2; lactam 1-8)		724
CC(C)C[C@@H]1NC(=O)[C@@H](CCCCNC(=O)c2cccnc2)NC(=O)[C@H](Cc2ccc(O)cc2)N(C)C(=O)[C@H](CO)NC(=O)[C@H](NC(=O)CCc2ccc(Cl)cc2)CCCCNC(=O)CC[C@H](C(N)=O)NC(=O)[C@@H]2CCCN2C(=O)[C@H](CCCCNC(C)C)NC1=O [Example 13, 4ClPhenylpropionyl-c-{DLys-Ser-NMeTyr-DLys(Nicotinyl)-Leu-Lys(N-epsilon-Isopropyl)-Pro-DGlu}-NH2] ({Propanoyl(3-(4-Cl-Ph))}-[dK]S[NMeY][dK](Nicotinoyl)L[Lys(iPr)]P[dE]-NH2; lactam 1-8)		19.1
Ac-D2Nal-D4ClPhe-c-{DGlu-Ser-NMeTyr-DLys(Nicotinyl)-Leu-Lys(N-epsilon-Isopropyl)-Pro-DLys}-NH2 [Example 7]	9.58	
Ac-D2Nal-D4ClPhe-c-{DGlu-Ser-NMeTyr-DLys(Nicotinyl)-Leu-Lys(N-epsilon-Isopropyl)-Pro-Lys}-NH2 [Example 12]	9.77	
CC(C)C[C@@H]1NC(=O)[C@@H](CCCCNC(=O)c2cccnc2)NC(=O)[C@H](Cc2ccc(O)cc2)N(C)C(=O)[C@H](CO)NC(=O)[C@H](NC(=O)CCc2ccc(Cl)cc2)CCCCNC(=O)CC[C@H](C(N)=O)NC(=O)CNC(=O)[C@H](CCCCNC(C)C)NC1=O [Example 16, 4ClPhenylpropionyl-c-{DLys-Ser-NMeTyr-DLys(Nicotinyl)-Leu-Lys(N-epsilon-Isopropyl)-Gly-DGlu}-NH2] ({Propanoyl(3-(4-Cl-Ph))}-[dK]S[NMeY][dK](Nicotinoyl)L[Lys(iPr)]G[dE]-NH2; lactam 1-8)		40.7
Ac-D2Nal-D4ClPhe-c-{DOrn-Ser-NMeTyr-DLys(Nicotinyl)-Leu-Lys(N-epsilon-Isopropyl)-Pro-DGlu}-NH2 [Example 14]	9.52	
Ac-D2Nal-D4ClPhe-c-{DLys-Ser-NMeTyr-DLys(Nicotinyl)-Leu-Lys(N-epsilon-Isopropyl)-Pro-DGlu}-NH2 [Example 1]	10.16	
CC(=O)N[C@@H]1CCCCNC(=O)CC[C@H](C(N)=O)NC(=O)[C@@H]2CCCN2C(=O)[C@H](CCCCNC(C)C)NC(=O)[C@H](CC(C)C)NC(=O)[C@@H](CCCCNC(=O)c2cccnc2)NC(=O)[C@H](Cc2ccc(O)cc2)N(C)C(=O)[C@H](CO)NC1=O [Example 9, Ac-c-{DLys-Ser-NMeTyr-DLys(Nicotinyl)-Leu-Lys(N-epsilon-Isopropyl)-Pro-DGlu}-NH2] (Ac-[dK]S[NMeY][dK](Nicotinoyl)L[Lys(iPr)]P[dE]-NH2; lactam 1-8)		6.17
CC(=O)N[C@@H]1CCC(=O)NCCCC[C@H](C(N)=O)NC(=O)[C@@H]2CCCN2C(=O)[C@H](CCCCNC(C)C)NC(=O)[C@H](CC(C)C)NC(=O)[C@@H](CCCCNC(=O)c2cccnc2)NC(=O)[C@H](Cc2ccc(O)cc2)N(C)C(=O)[C@H](CO)NC1=O [Example 11, Ac-c-{DGlu-Ser-NMeTyr-DLys(Nicotinyl)-Leu-Lys(N-epsilon-Isopropyl)-Pro-DLys}-NH2] (Ac-[dE]S[NMeY][dK](Nicotinoyl)L[Lys(iPr)]P[dK]-NH2; lactam 1-8)		20.4

More lines, main results first:

pA2	Molecule	Kb [nM]
9.27	Ac-D2Nal-D4ClPhe-c-{DLys-Ser-Tyr-DLys(Nicotinyl)-Leu-Lys(N-epsilon-Isopropyl)-Pro-Glu}-NH2 [Example 2]	
8.2	Ac-D2Nal-D4ClPhe-c-{Lys-Ser-NMeTyr-DLys(Nicotinyl)-Leu-Lys(N-epsilon-Isopropyl)-Pro-Glu}-NH2 [Example 5]	
8.73	Ac-D2Nal-D4ClPhe-c-{Lys-Ser-NMeTyr-DLys(Nicotinyl)-Leu-Lys(N-epsilon-Isopropyl)-Pro-DGlu}-NH2 [Example 3]	
10.05	Ac-D2Nal-D4ClPhe-c-{DLys-Ser-NMeTyr-DLys(Nicotinyl)-Leu-Lys(N-epsilon-Isopropyl)-Pro-Glu}-NH2 [Example 4]	
8.29	NAc-D2Nal D4ClPhe-c-{DLys-Gly-NMeTyr-DLys(Nicotinyl)-Leu-Lys(N-epsilon-Isopropyl)-Gly-DGlu}-NH2 [Example 17]	
5.95	NAc-c-{DGlu-Gly-NMeTyr-DLys(Nicotinyl)-Leu-Lys(N-epsilon-Isopropyl)-Sar-DLys}-NH2 [Example 19]	
7.54	Ac-D2Nal-D4ClPhe-c-{Glu-Ser-NMeTyr-DLys(Nicotinyl)-Leu-Lys(N-epsilon-Isopropyl)-Pro-DOrn}-NH2 [Example 6]	
9.66	Ac-D2Nal-D4ClPhe-c-{DLys-Ser-Tyr-DLys(Nicotinyl)-Leu-Lys(N-epsilon-Isopropyl)-Pro-DGlu}-NH2 [Example 8]	
5.66	4FPhenylacetyl-c-{DGlu-Ser-NMeTyr-DLys(Nicotinyl)-Leu-Lys(N-epsilon-Isopropyl)-Pro-DLys}-NH2 [Example 15]	
